Reference: patent publication US8729095B2, “3-(biaryloxy)propionic acid derivatives for prevention and/or treatment of thromboembolic diseases” (Daiichi Sankyo Company, Limited, priority 2009, dated 2014)

Tested on: platelet aggregation induced by ADP in human platelet-rich plasma (PRP)
Assay: Human platelet aggregation inhibitory activity (ADP-induced, platelet-rich plasma)
Format: cell-based
Conditions: 8 min, ADP final concentration 20 μM, maximum aggregation rate, measured for 8 minutes
Procedure: A blood collecting syringe containing 1/10 volume of a 3.8% sodium citrate solution was used to collect blood from radial vein of a healthy person. The collected blood was centrifuged at 180×g at room temperature for 10 minutes to separate the supernatant (platelet-rich plasma; PRP). After PRP was separately collected, the remaining blood was centrifuged at 1,600×g for 10 minutes to separately collect platelet-poor plasma (PPP) of the upper layer. PRP was left at rest at 16° C. for 30 minutes, and subsequently used for measurement.
200 μL of the separately collected PRP was dispensed into a cuvette for the aggregation test, and 1 μL of dimethylsulfoxide (control) or a test compound solution diluted with dimethylsulfoxide was added, followed by incubation at 37° C. for 2 minutes. Subsequently, 2 μL of 2 mM ADP was added (final concentration 20 μM) to induce platelet aggregation.
Platelet aggregation was measured for 8 minutes using an aggregometer (MCM HEMA TRACER 313M; MC MEDICAL, INC.). With the light transmittance rate of PPP being set as an aggregation value of 100%, the maximum aggregation rate was determined for each concentration of the test compounds to calculate IC50 values.

SMILES | IC50
CC(C)(COc1ccccc1-c1ccc(C(=O)N2CCC(N3C(=O)C(C)(C)Oc4ncc(C(F)(F)F)cc43)CC2)c(F)c1)C(=O)O [Example 3, 3-{[4′-({4-[3,3-Dimethyl-2-oxo-7-(trifluoromethyl)-2,3-dihydro-1H-pyrido[2,3-b][1,4]oxazin-1-yl]piperidin-1-yl}carbonyl)-3′-fluorobiphenyl-2-yl]oxy}-2,2-dimethylpropanoic acid] | 3.8 µM
Cc1cnc2c(c1)N(C1CCN(C(=O)c3ccc(-c4ccccc4OCC(C)(C)C(=O)O)cc3F)CC1)C(=O)C(C)O2 (stereo not drawn) [Example 4, 3-[(4′-{[4-(3,7-Dimethyl-2-oxo-2,3-dihydro-1H-pyrido[2,3-b][1,4]oxazin-1-yl)piperidin-1-yl]carbonyl}-3′-fluorobiphenyl-2-yl)oxy]-2,2-dimethylpropanoic acid] | 4 µM
Cc1cc(-c2ccccc2O[C@H](C)CC(=O)O)c(C)cc1C(=O)N1CCC(N2C(=O)C(C)(C)Oc3ncc(Cl)cc32)CC1 [Example 54, (3R)-3-[(4′-{[4-(7-Chloro-3,3-dimethyl-2-oxo-2,3-dihydro-1H-pyrido[2,3-b][1,4]oxazin-1-yl)piperidin-1-yl]carbonyl}-2′,5′-dimethylbiphenyl-2-yl)oxy]butanoic acid] | 11.4 µM
C[C@H](CC(=O)O)Oc1ccccc1-c1ccc(C(=O)N2CCC(N3C(=O)CCc4ncc(Cl)cc43)CC2)c(F)c1 [Example 8, (3R)-3-[(4′-{[4-(7-Chloro-2-oxo-3,4-dihydro-1,5-naphthyridin-1(2H)-yl)piperidin-1-yl]carbonyl}-3′-fluorobiphenyl-2-yl)oxy]butanoic acid] | 14 µM
Cc1cc(-c2ccccc2OCC(C)(C)C(=O)O)ccc1C(=O)N1CCC(N2C(=O)C3(CC3)Oc3ncc(Cl)cc32)CC1 [Example 15, 3-[(4′-{[4-(7′-Chloro-2′-oxospiro[cyclopropane-1,3′-pyrido[2,3-b][1,4]oxazin]-1′(2′H)-yl)piperidin-1-yl]carbonyl}-3′-methylbiphenyl-2-yl)oxy]-2,2-dimethylpropanoic acid] | 5.8 µM
C[C@H](C(=O)O)[C@@H](C)Oc1ccccc1-c1ccc(C(=O)N2CCC(N3C(=O)C(C)(C)Oc4ncc(Cl)cc43)CC2)c(F)c1 [Example 33, (2S,3R)-3-[(4′-{[4-(7-Chloro-3,3-dimethyl-2-oxo-2,3-dihydro-1H-pyrido[2,3-b][1,4]oxazin-1-yl)piperidin-1-yl]carbonyl}-3′-fluorobiphenyl-2-yl)oxy]-2-methylbutanoic acid] | 16 µM
C[C@H](CC(=O)O)Oc1ccc(F)cc1-c1cnc(C(=O)N2CCC(N3C(=O)[C@H](C)Oc4ncc(Cl)cc43)CC2)c(F)c1 [Example 43, (3R)-3-{2-[6-({4-[(3S)-7-Chloro-3-methyl-2-oxo-2,3-dihydro-1H-pyrido[2,3-b][1,4]oxazin-1-yl]piperidin-1-yl}carbonyl)-5-fluoropyridin-3-yl]-4-fluorophenoxy}butanoic acid] | 2.6 µM
C[C@@H](COc1ccccc1-c1cnc(C(=O)N2CCC(N3C(=O)C(C)(C)Oc4ncc(Cl)cc43)CC2)c(F)c1)C(=O)O [Example 47, (2S)-3-[2-(6-{[4-(7-Chloro-3,3-dimethyl-2-oxo-2,3-dihydro-1H-pyrido[2,3-b][1,4]oxazin-1-yl)piperidin-1-yl]carbonyl}-5-fluoropyridin-3-yl)phenoxy]-2-methylpropanoic acid] | 2 µM
C[C@@H](COc1ccc(F)cc1-c1cnc(C(=O)N2CCC(N3C(=O)C(C)(C)Cc4ncc(Cl)cc43)CC2)c(F)c1)C(=O)O [Example 48, (2S)-3-[2-(6-{[4-(7-Chloro-3,3-dimethyl-2-oxo-3,4-dihydro-1,5-naphthyridin-1(2H)-yl)piperidin-1-yl]carbonyl}-5-fluoropyridin-3-yl)-4-fluorophenoxy]-2-methylpropanoic acid] | 3.7 µM
